Assay results as given in patent publication US6432982B1, “Benzothiophenes, and formulations and methods using same” (Eli Lilly and Company, priority 1996, dated 2002).
Marks after values point to notes of the source that are not given here.

Key:
[1] = test system: uterus of ovariectomized (OVX) rats; assay: Uterine weight in ovariectomized rat post-menopausal model; type: in vivo, Sprague Dawley rats; settings: for Uterine Weight % inch (Uterine Weight % increase versus the ovarierectomized controls): oral, daily for 4 days
Protocol: (§1) In the examples illustrating the methods, a post-menopausal model is used in which effects of different treatments upon circulating lipids are determined.
(§2) Seventy-five day old female Sprague Dawley rats (weight range of 200 to 225 g) are obtained from Charles River Laboratories (Portage, Mich.). The animals are either bilaterally ovariectomized (OVX) or exposed to a Sham surgical procedure at Charles River Laboratories, and then shipped after one week. Upon arrival, they are housed in metal hanging cages in groups of 3 or 4 per cage and had ad libitum access to food (calcium content approximately 0.5%) and water for one week. Room temperature is maintained at 22.2°±1.7° C. with a minimum relative humidity of 40%. The photoperiod in the room is 12 hours light and 12 hours dark.
(§3) After a one week acclimation period (therefore, two weeks post-OVX) daily dosing with test compound is initiated. 17α-ethynyl estradiol or the test compound are given orally, unless otherwise stated, as a suspension in 1% carboxymethylcellulose or dissolved in 20% cyclodextrin. Animals are dosed daily for 4 days. Following the dosing regimen, animals are weighed and anesthetized with a ketamine: Xylazine (2:1, V:V) mixture and a blood sample is collected by cardiac puncture. The animals are then sacrificed by asphyxiation with CO2, the uterus is removed through a midline incision, and a wet uterine weight is determined.

[2] = test system: ovariectomized (OVX) rats; assay: Serum cholesterol analysis in ovariectomized rats; type: in vivo, Sprague Dawley rats; settings: for Serum Cholest. % Dec. (Serum cholesterol decrease versus ovariectomized controls): oral, daily for 4 days
Protocol: as §1, §2, §3
Blood samples are allowed to clot at room temperature for 2 hours, and serum is obtained following centrifugation for 10 minutes at 3000 rpm. Serum cholesterol is determined using a Boehringer Mannheim Diagnostics high performance cholesterol assay. Briefly the cholesterol is oxidized to cholest-4-en-3-one and hydrogen peroxide. The hydrogen peroxide is then reacted with phenol and 4-aminophenazone in the presence of peroxidase to produce a p-quinone imine dye, which is read spectrophotemetrically at 500 nm. Cholesterol concentration is then calculated against a standard curve. The entire assay is automated using a Biomek Automated Workstation.

[3] = test system: uterine eosinophil peroxidase; assay: Uterine Eosinophil Peroxidase (EPO) Assay; type: in vivo, Sprague Dawley rats; settings: for Uterine Eosinophil (Vmax) (Eosinphil peroxidase Vmaxium): OVX rats, oral, daily for 4 days
Description: as §2, §3
Uteri are kept at 4° C. until time of enzymatic analysis. The uteri are then homogenized in 50 volumes of 50 mM Tris buffer (pH−8.0) containing 0.005% Triton X-100. Upon addition of 0.01% hydrogen peroxide and 10 mM O-phenylenediamine (final concentrations) in Tris buffer, increase in absorbance is monitored for one minute at 450 nm. The presence of eosonophils in the uterus is an indication of estrogenic activity of a compound. The maximal velocity of a 15 second interval is determined over the initial, linear portion of the reaction curve.

[4] = test system: MCF-7 breast adenocarcinoma cells; assay: MCF-7 Proliferation Assay; type: cell-based; settings: Homo sapiens, MCF7; tritiated thymidine incorporation, 48 hours with drug, versus the control (DMSO); read-out: IC50, inhibition of proliferation of MCF-7 cells
Protocol: MCF-7 breast adenocarcinoma cells (ATCC HTB 22) are maintained in MEM (minimal essential medium, phenol red-free, Sigma, St. Louis, Mo.) supplemented with 10% fetal bovine serum (FBS) (V/V), L-glutamine (2 mM), sodium pyruvate (1 mM), HEPES {(N-[2-hydroxyethyl]piperazine-N′-[2-ethanesulfonic acid]10 mM}, non-essential amino acids and bovine insulin (1 ug/mL) (maintenance medium). Ten days prior to assay, MCF-7 cells are switched to maintenance medium supplemented with 10% dextran coated charcoal stripped fetal bovine serum (DCC-FBS) assay medium) in place of 10% FBS to deplete internal stores of steroids. MCF-7 cells are removed from maintenance flasks using cell dissociation medium (Ca++/Mg++ free HBSS (phenol red-free) supplemented with 10 mM HEPES and 2 mM EDTA). Cells are washed twice with assay medium and adjusted to 80,000 cells/mL. Approximately 100 μL (8,000 cells) are added to flat-bottom microculture wells (Costar 3596) and incubated at 37° C. in a 5% CO2 humidified incubator for 48 hours to allow for cell adherence and equilibration after transfer. Serial dilutions of drugs or DMSO as a diluent control are prepared in assay medium and 50 μL transferred to triplicate microcultures followed by 50 μL assay medium for a final volume of 200 μL. […] Samples are counted by liquid scintillation using a Wallac BetaPlace β counter. […]

[5] = compared to the ovariectomized animals, EE2 orally at 0.1 mg/kg/day

Row | Uterine Weight % inch (Uterine Weight % increase versus the ovarierectomized controls) ([1]; dose 10.0 mg/kg) | Uterine Eosinophil (Vmax) (Eosinphil peroxidase Vmaxium) ([3]; dose 10.0 mg/kg) | Uterine Weight % inch (Uterine Weight % increase versus the ovarierectomized controls) ([1]; dose 1.0 mg/kg) [%] | Uterine Eosinophil (Vmax) (Eosinphil peroxidase Vmaxium) ([3]; dose 1.0 mg/kg) | Uterine Weight % inch (Uterine Weight % increase versus the ovarierectomized controls) ([1]; dose 0.1 mg/kg) | Uterine Eosinophil (Vmax) (Eosinphil peroxidase Vmaxium) ([3]; dose 0.1 mg/kg) | IC50 [4] [nM] | Structure (SMILES) | Serum Cholest. % Dec. (Serum cholesterol decrease versus ovariectomized controls) ([2]; dose 10.0 mg/kg) | Serum Cholest. % Dec. (Serum cholesterol decrease versus ovariectomized controls) ([2]; dose 1.0 mg/kg) | Serum Cholest. % Dec. (Serum cholesterol decrease versus ovariectomized controls) ([2]; dose 0.1 mg/kg) | effect on uterine weight (in words) [1, 5] | effect on serum cholesterol (in words) [2, 5] | eosinophil infiltration into the uterus (in words) ([3]; stromal layer of ovariectomized rat uteri)
1 | 37.5* % | 12.0 | – | – | – | – | – | Cl.O=C(c1ccc(OCCN2CCCCC2)cc1Cl)c1c(-c2ccc(O)cc2)sc2cc(O)ccc12 [compound 8, [2-(4-Hydroxyphenyl)-6-hydroxybenzo[b]thien-3-yl][4-[2-(1-piperidinyl)ethoxy]2-chlorophenyl]methanone Hydrochloride] | 42.0* % | – | – | – | – | –
2 | 16.8% | 7.8 | – | – | – | – | – | Cl.N#Cc1cc(C(=O)c2c(-c3ccc(O)cc3)sc3cc(O)ccc23)ccc1OCCN1CCCCC1 [compound 9, [2-(4-Hydroxyphenyl)-6-hydroxybenzo[b]thien-3-yl][4-[2-(1-piperidinyl)ethoxy]3-cyanophenyl]methanone Hydrochloride] | 38.8* % | – | – | – | – | –
3 | 46.1* % | 30.9 | – | – | – | – | – | Cl.O=C(c1ccc(OCCN2CCCCC2)c(Cl)c1)c1c(-c2ccc(O)cc2)sc2cc(O)ccc12 [compound 7, [2-(4-Hydroxyphenyl)-6-hydroxybenzo[b]thien-3-yl][4-[2-(1-piperidinyl)ethoxy]3-chlorophenyl]methanone Hydrochloride] | 62.2* % | – | – | – | – | –
4 | – | – | −35.7 | 2.8 | – | – | – | Cc1cc(C(=O)c2c(-c3ccc(O)cc3)sc3cc(O)ccc23)cc(C(C)(C)C)c1OCCN1CCCCC1.Cl [compound 6, [2-(4-Hydroxyphenyl)-6-hydroxybenzo[b]thien-3-yl][4-[2-(1-piperidinyl)ethoxy]-3-t-butyl-5-methylphenyl]methanone Hydrochloride] | – | 55.2* % | – | – | – | –
5 | 27.4% | 25.9* | −16.4 | 7.2 | −24.4% | 4.0 | 40 | Cc1cc(C(=O)c2c(-c3ccc(O)cc3)sc3cc(O)ccc23)cc(C)c1OCCN1CCCCC1.Cl [compound 5, [2-(4-Hydroxyphenyl)-6-hydroxybenzo[b]thien-3-yl][4-[2-(1-piperidinyl)ethoxy]3,5-dimethylphenyl]methanone Hydrochloride] | 74.9* % | 55.5* % | 33.8* % | – | – | –
6 | 12.5% | 2.7 | 14.9 | 4.5 | 18.4% | 5.4 | – | Cl.O=C(c1ccc(OCCN2CCCCC2)c(F)c1)c1c(-c2ccc(O)cc2)sc2cc(O)ccc12 [compound 1, [2-(4-Hydroxyphenyl)-6-hydroxybenzo[b]thien-3-yl][4-[2-(1-piperidinyl)ethoxy]3-fluorophenyl]methanone Hydrochloride] | 64.1* % | 59.5* % | 45.1* % | – | – | –
7 | – | – | – | – | 207.5* % | 205.8* | – | C#C[C@]1(O)CC[C@H]2[C@@H]3CCc4cc(O)ccc4[C@H]3CC[C@@]21C [EE2, 17α-ethynyl estradiol, reference compound] | – | – | 87.3* % | substantially greater than the uterine weight of the ovariectomized animals | caused a decrease in serum cholesterol | substantial and expected increase in eosinophil infiltration
